Experimental data published in patent US11725036B2, “Modified lipidated relaxin B chain peptides and their therapeutic use” (Sanofi, priority 2018, dated 2023).
≈ marks a conversion by molar mass, not a printed value. Like-named read-outs stand apart in the source and are kept apart here. Starred links: 1 amine or outer side, 2 acyl side, 3 side chain; linkers in the order of their positions; H or OH if unused. Non-standard residues stand in square brackets, D forms with d. Residues, ends and D or L forms follow the SMILES beside them. Groups on a side chain read outwards from the residue. *: point of attachment. X5 = CCCCCCCCCCCCCCCC(=O)N[C@@H](CCC(=O)N[C@@H](CCC(=O)N[C@@H](CCC(=O)NCCCOCCOCCOCCCNC(=O)CCC(=O)NCCCOCCOCCOCCCNC(=O)CCC(=O)NCCCOCCOCCOCCCNC(=O)CCC(=O)NCCCOCCOCCOCCCN*)C(=O)O)C(=O)O)C(=O)O; X1 = CCCCCCCCCCCCCCCC(=O)N[C@@H](CCC(=O)N[C@@H](CCC(=O)N[C@@H](CCC(=O)NCCCOCCOCCOCCCNC(=O)CCC(=O)NCCCOCCOCCOCCCNC(=O)CCC(=O)NCCCOCCOCCOCCCN*)C(=O)O)C(=O)O)C(=O)O; X2 = CCCCCCCCCCCCCCCC(=O)N[C@@H](CCC(=O)N[C@@H](CCC(=O)N[C@@H](CCC(=O)NCCCOCCOCCOCCCNC(=O)CCC(=O)NCCCOCCOCCOCCCN*)C(=O)O)C(=O)O)C(=O)O; Suc = O=C(CCC(=O)[*:2])[*:1]; αMeK = C[C@](N)(CCCCN)C(=O)O; Aib = CC(C)(N)C(=O)O

How the values were obtained:
[1] = target: T1, RXFP1 (Homo sapiens, UniProt Q9HBX9); experiment: OVCAR5 cAMP assay (HTRF); type: cell-based; settings: for EC50: OVCAR 5 cells expressing endogenous RXFP1, cAMP readout; for Emax: OVCAR 5 cells, maximal cAMP relative to H2-relaxin
T1 construct: OVCAR5 cells expressing endogenous RXFP1; endogenous in cells; host or cells: OVCAR5
T1 sequence (Q9HBX9 1-757): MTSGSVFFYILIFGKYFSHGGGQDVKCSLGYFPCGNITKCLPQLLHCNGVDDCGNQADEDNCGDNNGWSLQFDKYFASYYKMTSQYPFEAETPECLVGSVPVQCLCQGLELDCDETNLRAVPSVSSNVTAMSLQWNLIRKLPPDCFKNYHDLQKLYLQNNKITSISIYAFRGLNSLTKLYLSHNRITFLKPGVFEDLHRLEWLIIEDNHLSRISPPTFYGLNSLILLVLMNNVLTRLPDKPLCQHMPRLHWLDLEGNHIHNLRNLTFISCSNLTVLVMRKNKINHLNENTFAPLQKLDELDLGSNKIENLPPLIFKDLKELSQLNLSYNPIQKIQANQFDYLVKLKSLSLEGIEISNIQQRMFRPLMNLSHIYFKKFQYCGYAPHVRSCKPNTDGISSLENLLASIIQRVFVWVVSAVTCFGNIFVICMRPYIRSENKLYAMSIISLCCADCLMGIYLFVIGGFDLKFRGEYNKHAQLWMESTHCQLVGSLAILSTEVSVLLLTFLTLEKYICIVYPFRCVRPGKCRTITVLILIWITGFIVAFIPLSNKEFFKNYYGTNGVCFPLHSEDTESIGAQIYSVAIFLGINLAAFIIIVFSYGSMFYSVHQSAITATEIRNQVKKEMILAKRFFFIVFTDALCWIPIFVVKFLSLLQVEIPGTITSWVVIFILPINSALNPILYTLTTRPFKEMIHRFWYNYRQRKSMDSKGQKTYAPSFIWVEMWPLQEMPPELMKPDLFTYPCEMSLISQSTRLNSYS
In short: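 Endogenous RXFP1 in OVCAR5 cells, pretreated 40 min at 37° C with 1 mM IBMX, then exposed to increasing peptide concentrations in serum-free medium for 30 min at 37° C. cAMP read by HTRF; EC50 by variable-slope sigmoidal fit, Emax as % of H2-relaxin maximal cAMP in same run.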

[2] = Solubility testing in buffer; type: physicochemical; settings: target solubility 10.0 mg/ml
Description: Prior to the testing of solubility of a peptide batch, its purity (HPLC-UV) was determined.
Acetate Buffer 50 mM pH4.5: 0.75 g C2H3C02Na,3H2O (Sigma S7545)+0.35 ml CH3CO2H 100% solution dissolved in Millipore water, adjusted to pH with diluted (1:1) CH3CO2H and diluted to 250 ml with Millipore water.
In a 4 ml Ependorph vial, an accurately weighed sample of compound was diluted in study media to obtain target concentration of 2, 6 or 10 mg/ml of pure compound. The sample vials were shacked (rock 'roll shaker) for ˜19 h. 300 μL aliquots were filtered through a Millipore “Solvinert” plate (0.45 μm-PTFE hydrophilic).
pH was measured with a micro electrode
Waters Acquity UPLC System with DAD detector
Column: Waters Peptide Column CSH C18 (130 Å; 1.7 μm; 50*2.1 mm)
Column temperature: 60° C.
Full loop (about 5 μL)—overfill factor 5
Weak et Strong wash: H2O/ACN (75/25; V/V); Seal wash: H2O/IsOH (95/5; V/V). Mobile phase:
Solvent A: 0.05% TFA in H2O; Solvent B: 0.035% TFA in CH3CN
Gradient: from 0 to 12 min B=2% to 60%, from 12 to 14 min B=60% to 100%. Column washing 100% B 1 min, column equilibration 2% B 2.5 min.
UV detector: wavelength: 220 nm.

[3] = acetate buffer 50 mM pH 4.5, read-out: Solubility Acetate buffer pH 4.5
[4] = phosphate buffer 50 mM pH 7.4, read-out: Solubility phosphate buffer pH 7.4

CCCCCCCCCCCCCCCC(=O)N[C@@H](CCC(=O)N[C@@H](CCC(=O)N[C@@H](CCC(=O)NCCCOCCOCCOCCCNC(=O)CCC(=O)NCCCOCCOCCOCCCNC(=O)CCC(=O)NCCCOCCOCCOCCCNC(=O)CCC(=O)NCCCOCCOCCOCCCNC(=O)CCC(=O)NCCCC[C@H](NC(=O)CNC(=O)[C@H](CCC(=O)O)NC(=O)C(C)(C)NC(=O)C(C)(C)NC(=O)[C@@H](NC(=O)[C@H](CCCCNC(C)=O)NC(=O)[C@H](C)NC(=O)[C@H](CCCNC(=N)N)NC(=O)[C@@H](NC(=O)[C@H](CCCNC(=N)N)NC(=O)[C@H](CCC(=O)O)NC(=O)[C@H](CCCNC(=N)N)NC(=O)CNC(=O)[C@H](CCC(=O)O)NC(=O)[C@H](CC(C)C)NC(C)=O)C(C)C)[C@@H](C)CC)C(=O)N[C@@H](CO)C(=O)N[C@H](C(=O)N[C@@H](Cc1c[nH]c2ccccc12)C(=O)N[C@@H](CO)C(=O)NC(C)(C)C(=O)N[C@@H](CCCNC(=N)N)C(=O)N[C@@H](CCCNC(=N)N)C(=O)N[C@@H](CCCCNC(C)=O)C(N)=O)[C@@H](C)O)C(=O)O)C(=O)O)C(=O)O [compound 75] (Ac-LEGRERVRAK(Ac)I[Aib][Aib]EGK([Suc-X5])STWS[Aib]RRK(Ac)-NH2)
EC50 [1]: 0.19 nM
Emax [1]: 97%
solubility [2, 3]: 8580 µg/mL (≈ 1800 µM)
solubility [2, 4]: 9560 µg/mL (≈ 2010 µM)

CCCCCCCCCCCCCCCC(=O)N[C@@H](CCC(=O)N[C@@H](CCC(=O)N[C@@H](CCC(=O)NCCCOCCOCCOCCCNC(=O)CCC(=O)NCCCOCCOCCOCCCNC(=O)CCC(=O)NCCCOCCOCCOCCCNC(=O)CCC(=O)NCCCC[C@H](NC(=O)CNC(=O)[C@H](CCC(=O)O)NC(=O)C(C)(C)NC(=O)C(C)(C)NC(=O)[C@@H](NC(=O)[C@H](CCCCNC(C)=O)NC(=O)[C@H](C)NC(=O)[C@H](CCCNC(=N)N)NC(=O)[C@@H](NC(=O)[C@H](Cc1ccccc1)NC(=O)[C@H](CCC(=O)O)NC(=O)[C@H](CCCNC(=N)N)NC(=O)CNC(=O)[C@H](CCC(=O)O)NC(=O)[C@H](CC(C)C)NC(C)=O)C(C)C)[C@@H](C)CC)C(=O)N[C@@H](CO)C(=O)N[C@H](C(=O)N[C@@H](Cc1ccccc1)C(=O)N[C@@H](CO)C(=O)N[C@@](C)(CCCCN)C(=O)N[C@@H](CCCNC(=N)N)C(=O)N[C@@H](C)C(=O)N[C@@H](CCCCNC(C)=O)C(N)=O)[C@@H](C)O)C(=O)O)C(=O)O)C(=O)O [compound 24] (Ac-LEGREFVRAK(Ac)I[Aib][Aib]EGK([Suc-X1])STFS[αMeK]RAK(Ac)-NH2)
EC50 [1]: 36.4 nM
Emax [1]: 100%
solubility [2, 3]: 280 µg/mL (≈ 63.9 µM)
solubility [2, 4]: 6930 µg/mL (≈ 1580 µM)

CCCCCCCCCCCCCCCC(=O)N[C@@H](CCC(=O)N[C@@H](CCC(=O)N[C@@H](CCC(=O)NCCCOCCOCCOCCCNC(=O)CCC(=O)NCCCOCCOCCOCCCNC(=O)CCC(=O)NCCCC[C@H](NC(=O)CNC(=O)[C@H](CCC(=O)O)NC(=O)C(C)(C)NC(=O)C(C)(C)NC(=O)[C@@H](NC(=O)[C@H](CCCCNC(C)=O)NC(=O)[C@H](C)NC(=O)[C@H](CCCNC(=N)N)NC(=O)[C@@H](NC(=O)[C@H](CCCCN)NC(=O)[C@H](CCC(=O)O)NC(=O)[C@H](CCCNC(=N)N)NC(=O)CNC(=O)[C@H](CCC(=O)O)NC(=O)[C@H](CC(C)C)NC(C)=O)C(C)C)[C@@H](C)CC)C(=O)N[C@@H](CO)C(=O)N[C@H](C(=O)N[C@@H](Cc1ccccc1)C(=O)N[C@@H](CO)C(=O)N[C@H](CCCCN)C(=O)N[C@@H](CCCNC(=N)N)C(=O)N[C@@H](C)C(=O)N[C@@H](CCCCNC(C)=O)C(N)=O)[C@@H](C)O)C(=O)O)C(=O)O)C(=O)O [compound 16] (Ac-LEGREKVRAK(Ac)I[Aib][Aib]EGK([Suc-X2])STFS[dK]RAK(Ac)-NH2)
EC50 [1]: 6.8 nM
Emax [1]: 88%
solubility [2, 3]: 6330 µg/mL (≈ 1560 µM)
solubility [2, 4]: 6720 µg/mL (≈ 1660 µM)

CCCCCCCCCCCCCCCC(=O)N[C@@H](CCC(=O)N[C@@H](CCC(=O)N[C@@H](CCC(=O)NCCCOCCOCCOCCCNC(=O)CCC(=O)NCCCOCCOCCOCCCNC(=O)CCC(=O)NCCCC[C@H](NC(=O)CNC(=O)[C@H](CCC(=O)O)NC(=O)C(C)(C)NC(=O)C(C)(C)NC(=O)[C@@H](NC(=O)[C@H](CCCCNC(C)=O)NC(=O)[C@H](C)NC(=O)[C@H](CCCNC(=N)N)NC(=O)[C@@H](NC(=O)[C@H](CCCCN)NC(=O)[C@H](CCC(=O)O)NC(=O)[C@H](CCCNC(=N)N)NC(=O)CNC(=O)[C@H](CCC(=O)O)NC(=O)[C@H](CC(C)C)NC(C)=O)C(C)C)[C@@H](C)CC)C(=O)N[C@@H](CO)C(=O)N[C@H](C(=O)N[C@@H](Cc1c[nH]c2ccccc12)C(=O)N[C@@H](CO)C(=O)N[C@H](CCCCN)C(=O)N[C@@H](CCCNC(=N)N)C(=O)N[C@@H](C)C(=O)N[C@@H](CCCCNC(C)=O)C(N)=O)[C@@H](C)O)C(=O)O)C(=O)O)C(=O)O [compound 17] (Ac-LEGREKVRAK(Ac)I[Aib][Aib]EGK([Suc-X2])STWS[dK]RAK(Ac)-NH2)
EC50 [1]: 4.6 nM
Emax [1]: 91%
solubility [2, 3]: 9220 µg/mL (≈ 2260 µM)
solubility [2, 4]: 6810 µg/mL (≈ 1670 µM)

CCCCCCCCCCCCCCCC(=O)N[C@@H](CCC(=O)N[C@@H](CCC(=O)N[C@@H](CCC(=O)NCCCOCCOCCOCCCNC(=O)CCC(=O)NCCCOCCOCCOCCCNC(=O)CCC(=O)NCCCOCCOCCOCCCNC(=O)CCC(=O)NCCCC[C@H](NC(=O)CNC(=O)[C@H](CCC(=O)O)NC(=O)C(C)(C)NC(=O)C(C)(C)NC(=O)[C@@H](NC(=O)[C@H](CCCCNC(C)=O)NC(=O)[C@H](C)NC(=O)[C@H](CCCNC(=N)N)NC(=O)[C@@H](NC(=O)[C@H](CCC(N)=O)NC(=O)[C@H](CCC(=O)O)NC(=O)[C@H](CCCNC(=N)N)NC(=O)CNC(=O)[C@H](CCC(=O)O)NC(=O)[C@H](CC(C)C)NC(C)=O)C(C)C)[C@@H](C)CC)C(=O)N[C@@H](CO)C(=O)N[C@H](C(=O)N[C@@H](Cc1ccccc1)C(=O)N[C@@H](CO)C(=O)N[C@@](C)(CCCCN)C(=O)N[C@@H](CCCNC(=N)N)C(=O)N[C@@H](C)C(=O)N[C@@H](CCCCNC(C)=O)C(N)=O)[C@@H](C)O)C(=O)O)C(=O)O)C(=O)O [compound 25] (Ac-LEGREQVRAK(Ac)I[Aib][Aib]EGK([Suc-X1])STFS[αMeK]RAK(Ac)-NH2)
EC50 [1]: 28.7 nM
Emax [1]: 100%
solubility [2, 3]: 6580 µg/mL (≈ 1510 µM)
solubility [2, 4]: 6750 µg/mL (≈ 1550 µM)

CCCCCCCCCCCCCCCC(=O)N[C@@H](CCC(=O)N[C@@H](CCC(=O)N[C@@H](CCC(=O)NCCCOCCOCCOCCCNC(=O)CCC(=O)NCCCOCCOCCOCCCNC(=O)CCC(=O)NCCCOCCOCCOCCCNC(=O)CCC(=O)NCCCC[C@H](NC(=O)CNC(=O)[C@H](CCC(=O)O)NC(=O)C(C)(C)NC(=O)C(C)(C)NC(=O)[C@@H](NC(=O)[C@H](CCCCNC(C)=O)NC(=O)[C@H](C)NC(=O)[C@H](CCCNC(=N)N)NC(=O)[C@@H](NC(=O)[C@H](CCCCN)NC(=O)[C@H](CCC(=O)O)NC(=O)[C@H](CCCNC(=N)N)NC(=O)CNC(=O)[C@H](CCC(=O)O)NC(=O)[C@H](CC(C)C)NC(C)=O)C(C)C)[C@@H](C)CC)C(=O)N[C@@H](CO)C(=O)N[C@H](C(=O)N[C@@H](Cc1c[nH]c2ccccc12)C(=O)N[C@@H](CO)C(=O)NC(C)(C)C(=O)N[C@@H](CCCNC(=N)N)C(=O)N[C@@H](CCCCNC(C)=O)C(=O)N[C@@H](CCCCN)C(N)=O)[C@@H](C)O)C(=O)O)C(=O)O)C(=O)O [compound 68] (Ac-LEGREKVRAK(Ac)I[Aib][Aib]EGK([Suc-X1])STWS[Aib]RK(Ac)K-NH2)
EC50 [1]: 0.88 nM
Emax [1]: 98%
